What all share (format): in vivo
In assay [1] the test system is Alopecurus myosuroides (ALOMY). Briefly: Pre-emergence biological efficacy, glasshouse pot test. Particulars: 312 h, 1,000 g/ha, evaluated after 13 days, 100=total damage, 0=no damage, read-out: Percentage damage caused to weed species, pre-emergence, ALOMY. Put shortly: (§1)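 Damage ratings (0 no damage to 100 total damage) were taken 13 days after treatment. Compound had been applied at 1000 or 250 g/ha as an aqueous spray from acetone/water (50:50) with 0.5% Tween 20, one day after sowing in soil.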

Assay [2] relates to Solanum nigrum (SOLNI). Described as above. Particulars: 312 h, 1,000 g/ha, evaluated after 13 days, 100=total damage, 0=no damage, read-out: Percentage damage caused to weed species, pre-emergence, SOLNI. The method in brief:
as §1

Assay [3] relates to Ipomea hederaceae (IPOHE). Described as above. Particulars: Ipomoea hederacea, 312 h, 1,000 g/ha, evaluated after 13 days, 100=total damage, 0=no damage, read-out: Percentage damage caused to weed species, pre-emergence, IPOHE. Put shortly: as §1
Assay [4] has as its system Amaranthus retroflexus (AMARE). The description is as above. Particulars: 312 h, 1,000 g/ha, evaluated after 13 days, 100=total damage, 0=no damage, read-out: Percentage damage caused to weed species, pre-emergence, AMARE. Put shortly: as §1
Assay [5] has as its system Echinochloa crus-galli (ECHCG). Described as above. Particulars: 312 h, 1,000 g/ha, evaluated after 13 days, 100=total damage, 0=no damage, read-out: Percentage damage caused to weed species, pre-emergence, ECHCG. The method in brief: as §1
Assay [6] relates to Setaria faberi (SETFA). Described as above. Particulars: 312 h, 1,000 g/ha, evaluated after 13 days, 100=total damage, 0=no damage, read-out: Percentage damage caused to weed species, pre-emergence, SETFA. The method in brief: as §1
The subject of assay [7] is Alopecurus myosuroides (ALOMY). Briefly: Post-emergence biological efficacy, glasshouse pot test. Particulars: 312 h, 1,000 g/ha, evaluated after 13 days, 100=total damage, 0=no damage, read-out: Percentage damage caused to weed species, post-emergence, ALOMY. Put shortly: (§2)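 Post-emergence spray, 1000 or 250 g/ha, acetone/water 50:50 + 0.5% Tween 20; plants 8 d old from sowing; glasshouse 24/16 °C, 14 h light, 65% RH, watered twice daily; visual damage 0–100 at 13 d.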

Assay [8] deals with Solanum nigrum (SOLNI). Described as above. Particulars: 312 h, 1,000 g/ha, evaluated after 13 days, 100=total damage, 0=no damage, read-out: Percentage damage caused to weed species, post-emergence, SOLNI. Put shortly:
as §2

Assay [9] has as its system Ipomea hederaceae (IPOHE). Described as above. Particulars: Ipomoea hederacea, 312 h, 1,000 g/ha, evaluated after 13 days, 100=total damage, 0=no damage, read-out: Percentage damage caused to weed species, post-emergence, IPOHE. The method in brief: as §2
For assay [10], the system named is Amaranthus retroflexus (AMARE). The description is as above. Particulars: 312 h, 1,000 g/ha, evaluated after 13 days, 100=total damage, 0=no damage, read-out: Percentage damage caused to weed species, post-emergence, AMARE. Put shortly:
as §2

The subject of assay [11] is Echinochloa crus-galli (ECHCG). Described as above. Particulars: 312 h, 1,000 g/ha, evaluated after 13 days, 100=total damage, 0=no damage, read-out: Percentage damage caused to weed species, post-emergence, ECHCG. The method in brief:
as §2

Assay [12] relates to Setaria faberi (SETFA). The description is as above. Particulars: 312 h, 1,000 g/ha, evaluated after 13 days, 100=total damage, 0=no damage, read-out: Percentage damage caused to weed species, post-emergence, SETFA. Put shortly:
as §2

In the case of `COC(=O)c1nc(Cl)cc(NCc2ccccc2[N+](=O)[O-])c1Cl` [Compound 15-2, 3,6-Dichloro-4-[(2-nitrophenylmethyl)-amino]-pyridine-2-carboxylic acid methyl ester], the pest or weed control at 1000 g/ha in assay [1] stood at 90%; in the assay with Solanum nigrum (SOLNI) [2] it was 100%; in [3] it was 100%; in assay [4], 100%; in assay [5], 80%; with Setaria faberi (SETFA) [6], 90%. Further, the pest or weed control at 1000 g/ha in [7] turned out to be 70%; in the assay on Solanum nigrum (SOLNI) [8], 100%; in assay [9], 90%; in assay [10] it was 100%; in assay [11], 70%; in the assay with Setaria faberi (SETFA) [12] it was 90%.
On to `C=Cc1c(NCc2ccccc2Cl)cc(Cl)nc1C(=O)OC` [Compound 3-12, 6-Chloro-4-[(2-chlorophenyl-methyl)-amino]-3-ethenyl-pyridine-2-carboxylic acid methyl ester], for which the pest or weed control at 1000 g/ha is 20% in assay [1]; 90% in the assay on Solanum nigrum (SOLNI) [2]; 50% in [3]; 100% in assay [4]; 0% in assay [5]; 10% with Setaria faberi (SETFA) [6]. Also, the pest or weed control at 1000 g/ha amounted to 0% in assay [7]; 90% in the assay with Solanum nigrum (SOLNI) [8]; 40% in assay [9]; 100% in assay [10]; 20% in [11]; 10% in the assay with Setaria faberi (SETFA) [12].
Turning to `COC(=O)c1nc(Cl)cc(NCC2CCCCC2)c1Cl` [Compound 67-2, 4- Cyclohexylmethyl amino-3,6-dichloro-pyridine-2-carboxylic acid methyl ester], the pest or weed control at 1000 g/ha came out at 20% in assay [1]; 90% with Solanum nigrum (SOLNI) [2]; 80% in assay [3]; 100% in assay [4]; 10% in assay [5]; 60% with Setaria faberi (SETFA) [6]. Moreover, the pest or weed control at 1000 g/ha in [7] was found to be 30%; with Solanum nigrum (SOLNI) [8], 100%; in assay [9] it was 70%; in assay [10], 100%; in assay [11], 20%; with Setaria faberi (SETFA) [12], 20%.
With `COC(=O)c1nc(-c2ccc(Cl)c(N(C)C)c2F)cc(NCc2ccco2)c1Cl` [Compound 26-245, 3-Chloro-6-(4-chloro-3-dimethylamino-2-fluoro-phenyl)-4-[(furan-2-ylmethyl)-amino]-pyridine-2-carboxylic acid methyl ester], the pest or weed control at 1000 g/ha was 10% in assay [1]; 60% with Solanum nigrum (SOLNI) [2]; 60% in assay [3]; 100% in [4]; 30% in assay [5]; 30% in the assay with Setaria faberi (SETFA) [6]. The pest or weed control at 1000 g/ha was 40% in assay [7]; 90% with Solanum nigrum (SOLNI) [8]; 60% in assay [9]; 100% in [10]; 50% in assay [11]; 60% in the assay with Setaria faberi (SETFA) [12].
Consider `C=Cc1c(C(=O)OC)nc(Cl)c(Cl)c1NCc1ncccc1Cl` [Compound 32-39, 4-[(3-Chloro-pyridin-2-ylmethyl)-amino]-5,6-dichloro-3-ethenyl-pyridine-2-carboxylic acid methyl ester], for which the pest or weed control at 1000 g/ha in assay [1] stood at 0%; in the assay on Solanum nigrum (SOLNI) [2], 60%; in assay [3], 50%; in assay [4] it was 100%; in [5] it was 0%; with Setaria faberi (SETFA) [6] it was 0%. Further, the pest or weed control at 1000 g/ha in assay [7] turned out to be 10%; in the assay on Solanum nigrum (SOLNI) [8], 90%; in assay [9] it was 40%; in assay [10], 100%; in [11], 20%; in the assay on Setaria faberi (SETFA) [12] it was 50%.
As for `C=Cc1c(C(=O)OC)nc(Cl)c(Cl)c1NCc1ccccc1[N+](=O)[O-]` [Compound 15-39, 5,6-Dichloro-3-ethenyl-4-[(2-nitrophenylmeth-yl)-amino]-pyridine-2-carboxylic acid methyl ester], the pest or weed control at 1000 g/ha in [1] amounted to 30%; with Solanum nigrum (SOLNI) [2] it was 100%; in assay [3], 90%; in assay [4], 100%; in assay [5], 80%; in the assay on Setaria faberi (SETFA) [6], 40%. The pest or weed control at 1000 g/ha in [7] is 60%; with Solanum nigrum (SOLNI) [8], 100%; in [9] it was 90%; in [10], 100%; in assay [11], 60%; in the assay with Setaria faberi (SETFA) [12], 80%.
Consider `COC(=O)c1nc(Cl)cc(NCc2ccccc2C(F)(F)F)c1Cl` [Compound 74-2, 3,6-Dichloro-4-[(2-trifluoromethyl-phenylmethyl)-amino]-pyridine-2-carboxylic acid methyl ester], for which the pest or weed control at 1000 g/ha in assay [1] was found to be 0%; in the assay with Solanum nigrum (SOLNI) [2], 90%; in assay [3], 70%; in [4], 90%; in assay [5], 0%; with Setaria faberi (SETFA) [6], 10%. For the same compound, the pest or weed control at 1000 g/ha in [7] was determined as 10%; with Solanum nigrum (SOLNI) [8] it was 100%; in [9], 60%; in assay [10], 100%; in assay [11], 0%; in the assay with Setaria faberi (SETFA) [12], 0%.
Take `COC(=O)c1nc(Cl)cc(NCC2CCCCCCC2)c1Cl` [Compound 69-2, 4-Cyclooctylmethyl-amino-3,6-dichloro-pyridine-2-carboxylic acid methyl ester]: the pest or weed control at 1000 g/ha is 20% in assay [1]; 100% with Solanum nigrum (SOLNI) [2]; 80% in assay [3]; 90% in assay [4]; 10% in assay [5]; 10% in the assay on Setaria faberi (SETFA) [6]. The pest or weed control at 1000 g/ha in assay [7] turned out to be 10%; with Solanum nigrum (SOLNI) [8], 90%; in assay [9], 70%; in assay [10], 100%; in assay [11], 0%; in the assay with Setaria faberi (SETFA) [12] it was 0%.
As to `C=Cc1c(NCc2ccccc2OC)cc(Cl)nc1C(=O)OC` [Compound 73-12, 6-Chloro-3-ethenyl-4-[(2-methoxyphenyl-methyl)-amino]-pyridine-2-carboxylic acid methyl ester], the pest or weed control at 1000 g/ha in [1] came out at 70%; in the assay on Solanum nigrum (SOLNI) [2], 100%; in [3], 70%; in assay [4], 100%; in assay [5], 20%; with Setaria faberi (SETFA) [6] it was 80%. The pest or weed control at 1000 g/ha in assay [7] is 20%; in the assay on Solanum nigrum (SOLNI) [8], 90%; in assay [9], 50%; in [10], 100%; in assay [11], 20%; in the assay with Setaria faberi (SETFA) [12] it was 80%.

(Values after patent US20120100990A1, “4 -AMINOPICOLINATES AND THEIR USE AS HERBICIDES” (SYNGENTA CROP PROTECTION LLC, priority 2009, published 2012).)
